Source: patent US12391677B2, “Thyroid hormone receptor agonists” (INVENTISBIO CO., LTD., priority 2018, dated 2025)

How the values were obtained:
[1] = target: ligand binding domain of thyroid hormone receptor beta (Homo sapiens (Human), UniProt P10828); assay: Thyroid hormone receptor TR-FRET binding assay (TRβ LBD); details: TRβ LBD 2 nM
Procedure: (§1) TR-FRET binding assay was used to test representative compounds herein.
(§2) The ligand binding domain of thyroid hormone receptor alpha and the ligand binding domain of thyroid hormone receptor beta with GST tag were purchased from Invitrogen. Biotin-SRC2-2 coactivator peptide was purchased from Sangon Biotech, Europium anti-GST and Streptavidin-D2 was from Cisbio.
(§3) Five microliters of 4× compound serial dilution was added in the 384-well plate, white, low volume, round-bottom assay plate. […] Centrifuge the assay plates at 1000 g for 1 min and incubate 1 hr at RT, protected from light. […] Calculate EC50 by fitting % Activity values and log of compound concentrations to nonlinear regression (dose response—variable slope) with Graphpad 5.0.

[2] = target: ligand binding domain of thyroid hormone receptor alpha (Homo sapiens (Human), UniProt P10827); assay: Thyroid hormone receptor TR-FRET binding assay (TRα LBD); details: TRα LBD 4 nM
Procedure: as §1, §2, §3

[3] = target: TRβ-GAL4 binding domain chimeric receptors (Homo sapiens (Human), UniProt P10828); assay: Thyroid hormone receptor cell assay (GAL4 luciferase reporter in HEK293-LUC cells); type: cell-based
Excerpt: TRα-LBD or TRβ-LBD, coding sequence was inserted into pBIND expression vector (Promega, E1581) to express TRβ-GAL4 binding domain chimeric receptors. This expression vector was transfected into HEK293-LUC host cells with reporter vector (pGL4.35 which carry a stably integrated GAL4 promoter driven luciferase reporter gene). Upon agonist binding to the corresponding TRa-GAL4 or TRb-GAL4 chimeric receptor, the chimeric receptor binds to the GAL4 binding sites and stimulates the reporter gene.
Seed 2.5×10^6 HEK293-LUC cells into a 60 mm dish and incubated for 16 h at 37° C. under 5% CO2 atmosphere. Mix 12 microliters of Lipo LTX reagent in 250 microliters of Opti-MEM Medium by inversion. Mix 6 ug of DNA in 250 uL of Opti-MEM medium, then add 6 uL of Lipo PLUS Reagent. Add diluted DNA to each tube of diluted Lipo LTX Reagent (1:1 ratio), and mix by Pipettor and incubate at room temperature for 10 min. The reagent mixture was added to a 60 mm dish, incubated with cells for 4-7 h at 37 degrees under 5% CO2 atmosphere.
75 nL compound was added into 384 well assay plate using ECHO550 and then add HEK293-LUC cells (transfected, 17,000 cells/well) into the plate using phenol red-free DMEM containing 5% charcoal/dextran-treated FBS and incubated for 16-20 h at […] under 5% CO2 atmosphere. Add 25 uL of Steady-Glo Luciferase Assay Reagent into each well. Shake for 5 min and then record the luminescence value on Envision 2104 plate reader.

Sequence of ligand binding domain of thyroid hormone receptor beta (P10828 217-461): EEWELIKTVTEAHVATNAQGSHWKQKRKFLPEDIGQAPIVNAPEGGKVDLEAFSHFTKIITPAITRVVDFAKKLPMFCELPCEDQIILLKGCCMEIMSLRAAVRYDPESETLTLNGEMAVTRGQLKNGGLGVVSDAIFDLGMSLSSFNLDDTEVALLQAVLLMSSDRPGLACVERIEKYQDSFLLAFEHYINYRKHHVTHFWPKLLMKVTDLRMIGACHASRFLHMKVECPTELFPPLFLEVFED
Sequence of TRβ-GAL4 binding domain chimeric receptors (P10828 217-461, stated change not applied): as the sequence (P10828 217-461) above
Sequence of ligand binding domain of thyroid hormone receptor alpha (P10827 other isoform, or with tags, fused parts or gaps del 1-162, other chains not shown): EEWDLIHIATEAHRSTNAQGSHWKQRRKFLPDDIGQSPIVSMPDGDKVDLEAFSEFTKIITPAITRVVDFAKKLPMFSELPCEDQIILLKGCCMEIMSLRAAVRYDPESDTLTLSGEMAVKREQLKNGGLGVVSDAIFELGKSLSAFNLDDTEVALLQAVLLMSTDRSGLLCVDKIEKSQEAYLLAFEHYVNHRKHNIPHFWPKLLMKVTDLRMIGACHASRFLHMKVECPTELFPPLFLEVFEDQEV

CC(c1ccccc1)c1cc(Oc2c(Cl)cc(-n3nc(C#N)c(=O)[nH]c3=O)cc2C(F)(F)F)n[nH]c1=O (racemic) [Compound 94]
EC50 [1]: 0.5 µM

CC(c1cc(Oc2c(Cl)cc(-n3nc(C#N)c(=O)[nH]c3=O)cc2C(F)(F)F)n[nH]c1=O)C1CCCCC1 (racemic) [Compound 97]
EC50 [1]: 0.26 µM

Cc1nn(-c2cc(Cl)c(Oc3cc([C@@H](C)c4ccccc4)c(=O)[nH]n3)c(Cl)c2)c(=O)[nH]c1=O (single isomer, unassigned) [Compound 71]
EC50 [1]: 0.3 µM | EC50 [2]: 14.6 µM | EC50 [3]: 0.46 µM

Cc1nn(-c2cc(Cl)c(Oc3cc([C@H](C)c4ccccc4)c(=O)[nH]n3)c(Cl)c2)c(=O)[nH]c1=O (single isomer, unassigned) [Compound 72]
EC50 [1]: 3.47 µM | EC50 [2]: 90 µM

Cc1nn(-c2cc(Cl)c(Oc3cc(C(C)C4CCCCC4)c(=O)[nH]n3)c(Cl)c2)c(=O)[nH]c1=O (single isomer, unassigned) [Compound 75]
EC50 [1]: 0.16 µM | EC50 [2]: 1.13 µM | EC50 [3]: 0.27 µM

Cc1nn(-c2cc(Cl)c(Oc3cc(C(C)C4CCCCC4)c(=O)[nH]n3)c(Cl)c2)c(=O)[nH]c1=O (single isomer, unassigned) [Compound 76]
EC50 [1]: 1.05 µM | EC50 [2]: 43.4 µM

CC(c1ccccc1)c1cc(Oc2c(Cl)cc(-n3nc(C#N)c(=O)[nH]c3=O)cc2Cl)n[nH]c1=O (single isomer, unassigned) [Compound 88]
EC50 [1]: 3.21 µM

CC(c1ccccc1)c1cc(Oc2c(Cl)cc(-n3nc(C#N)c(=O)[nH]c3=O)cc2Cl)n[nH]c1=O (single isomer, unassigned) [Compound 89]
EC50 [1]: 0.36 µM

CC(c1cc(Oc2c(Cl)cc(-n3nc(C#N)c(=O)[nH]c3=O)cc2Cl)n[nH]c1=O)C1CCCCC1 (single isomer, unassigned) [Compound 92]
EC50 [1]: 0.29 µM | EC50 [3]: 13.6 µM

CC(c1cc(Oc2c(Cl)cc(-n3nc(C#N)c(=O)[nH]c3=O)cc2Cl)n[nH]c1=O)C1CCCCC1 (single isomer, unassigned) [Compound 93]
EC50 [1]: 1.56 µM

CC(c1ccccc1)c1cc(Oc2c(Cl)cc(-n3nc(C#N)c(=O)[nH]c3=O)cc2C(F)(F)F)n[nH]c1=O (single isomer, unassigned) [Compound 95]
EC50 [1]: 0.24 µM

CC(c1ccccc1)c1cc(Oc2c(Cl)cc(-n3nc(C#N)c(=O)[nH]c3=O)cc2C(F)(F)F)n[nH]c1=O (single isomer, unassigned) [Compound 96]
EC50 [1]: 0.84 µM

CC(c1cc(Oc2c(Cl)cc(-n3nc(C#N)c(=O)[nH]c3=O)cc2C(F)(F)F)n[nH]c1=O)C1CCCCC1 (single isomer, unassigned) [Compound 98]
EC50 [3]: 5.5 µM

CC(c1cc(Oc2c(Cl)cc(-n3nc(C#N)c(=O)[nH]c3=O)cc2C(F)(F)F)n[nH]c1=O)C1CCCCC1 (single isomer, unassigned) [Compound 99]
EC50 [3]: 18.5 µM

N#Cc1nn(-c2cc(Cl)c(Oc3cc(C4CC4)c(=O)[nH]n3)c(Cl)c2)c(=O)[nH]c1=O [Compound 1]
EC50 [1]: 0.54 µM | EC50 [2]: 5.76 µM | EC50 [3]: 7.1 µM

N#Cc1nn(-c2cc(Cl)c(Oc3cc(C4CCCC4)c(=O)[nH]n3)c(Cl)c2)c(=O)[nH]c1=O [Compound 2]
EC50 [1]: 0.76 µM | EC50 [2]: 36.7 µM | EC50 [3]: 9.88 µM

N#Cc1nn(-c2cc(Cl)c(Oc3cc(C4CCCCC4)c(=O)[nH]n3)c(Cl)c2)c(=O)[nH]c1=O [Compound 4]
EC50 [1]: 0.81 µM | EC50 [2]: 36.7 µM | EC50 [3]: 12.2 µM

N#Cc1nn(-c2ccc(Oc3cc(C4CC4)c(=O)[nH]n3)c(Cl)c2)c(=O)[nH]c1=O [Compound 6]
EC50 [1]: > 10 µM | EC50 [2]: > 10 µM

Cc1nn(-c2cc(Br)c(Oc3cc(C4CCC4)c(=O)[nH]n3)c(Br)c2)c(=O)[nH]c1=O [Compound 13]
EC50 [1]: 0.12 µM | EC50 [2]: 1.35 µM

CC(=O)N1CCC(c2cc(Oc3c(Cl)cc(-n4nc(C#N)c(=O)[nH]c4=O)cc3Cl)n[nH]c2=O)CC1 [Compound 19]
EC50 [1]: > 90 µM | EC50 [2]: > 90 µM

N#Cc1nn(-c2cc(Cl)c(Oc3cc(-c4ccccc4)c(=O)[nH]n3)c(Cl)c2)c(=O)[nH]c1=O [Compound 24]
EC50 [1]: > 10 µM | EC50 [2]: > 10 µM

N#Cc1nn(-c2cc(Cl)c(Oc3cc(CCc4ccccc4)c(=O)[nH]n3)c(Cl)c2)c(=O)[nH]c1=O [Compound 26]
EC50 [1]: > 10 µM | EC50 [2]: > 10 µM

N#Cc1nn(-c2cc(Cl)c(Oc3cc(Cc4cccc(O)c4)c(=O)[nH]n3)c(Cl)c2)c(=O)[nH]c1=O [Compound 34]
EC50 [1]: > 90 µM | EC50 [2]: > 90 µM

CC(C)c1cc(Oc2c(Cl)cc(-n3nc(C4CC4)c(=O)[nH]c3=O)cc2Cl)n[nH]c1=O [Compound 36]
EC50 [1]: 11.7 µM | EC50 [2]: > 90 µM

CC(C)c1cc(Oc2c(Cl)cc(-n3nc(C(C)C)c(=O)[nH]c3=O)cc2Cl)n[nH]c1=O [Compound 38]
EC50 [1]: > 90 µM | EC50 [2]: > 90 µM

Cc1cc(-n2nc(C#N)c(=O)[nH]c2=O)c(F)c(C)c1Oc1cc(C(C)C)c(=O)[nH]n1 [Compound 45]
EC50 [1]: 4.16 µM | EC50 [2]: > 10 µM

Cc1nn(-c2cc(Cl)c(Oc3cc(Cc4ccc(Cl)cc4)c(=O)[nH]n3)c(Cl)c2)c(=O)[nH]c1=O [Compound 49]
EC50 [1]: 0.23 µM | EC50 [2]: 3.2 µM

N#Cc1nn(-c2cc(Cl)c(Oc3cc(CC4CCC(O)CC4)c(=O)[nH]n3)c(Cl)c2)c(=O)[nH]c1=O (centres unmarked) [Compound 50]
EC50 [1]: 8.8 µM | EC50 [2]: > 90 µM

N#Cc1nn(-c2cc(Cl)c(Oc3cc(CC4CCC(O)C4)c(=O)[nH]n3)c(Cl)c2)c(=O)[nH]c1=O (centres unmarked) [Compound 51]
EC50 [1]: > 90 µM | EC50 [2]: > 90 µM

Cc1nn(-c2cc(Cl)c(Oc3cc(Cc4ccc(O)cc4)c(=O)[nH]n3)c(Cl)c2)c(=O)[nH]c1=O [Compound 53]
EC50 [1]: 0.01 µM | EC50 [2]: 1.37 µM

Cc1nn(-c2cc(Cl)c(Oc3cc(CC4CCC(O)CC4)c(=O)[nH]n3)c(Cl)c2)c(=O)[nH]c1=O (centres unmarked) [Compound 55]
EC50 [1]: 1.07 µM | EC50 [2]: 8.57 µM

N#Cc1nn(-c2cc(Cl)c(Oc3cc(Cc4ccccc4O)c(=O)[nH]n3)c(Cl)c2)c(=O)[nH]c1=O [Compound 57]
EC50 [1]: 1.63 µM | EC50 [2]: 90 µM

Cc1nn(-c2cc(Cl)c(Oc3cc(CC4CCCC4)c(=O)[nH]n3)c(Cl)c2)c(=O)[nH]c1=O [Compound 59]
EC50 [1]: 0.19 µM | EC50 [2]: 1.17 µM

Cc1nn(-c2cc(Cl)c(Oc3cc(C(C)C4CCCCC4)c(=O)[nH]n3)c(Cl)c2)c(=O)[nH]c1=O (centres unmarked) [Compound 61]
EC50 [1]: 0.15 µM | EC50 [2]: 15.6 µM

N#Cc1nn(-c2cc(Cl)c(Oc3cc(Cc4ccccc4)c(=O)[nH]n3)c(C(F)(F)F)c2)c(=O)[nH]c1=O [Compound 64]
EC50 [1]: 0.24 µM | EC50 [2]: 90 µM

Cc1nn(-c2cc(Cl)c(Oc3cc(Cc4cccc(F)c4)c(=O)[nH]n3)c(Cl)c2)c(=O)[nH]c1=O [Compound 68]
EC50 [1]: 0.78 µM | EC50 [2]: 7.82 µM

COc1ccccc1Cc1cc(Oc2c(Cl)cc(-n3nc(C)c(=O)[nH]c3=O)cc2Cl)n[nH]c1=O [Compound 69]
EC50 [1]: 2.62 µM | EC50 [2]: 90 µM

CC(C)c1cc(Oc2c(Cl)cc(CCP(=O)(O)O)cc2Cl)n[nH]c1=O [Compound 70]
EC50 [1]: 42.4 µM | EC50 [2]: 90 µM

N#Cc1nn(-c2cc(Cl)c(Oc3cc(C4CCN(Cc5ccccc5)CC4)c(=O)[nH]n3)c(Cl)c2)c(=O)[nH]c1=O [Compound 77]
EC50 [1]: 90 µM | EC50 [2]: 90 µM

Cc1nn(-c2cc(Br)c(Oc3cc(C(=O)c4ccccc4)c(=O)[nH]n3)c(Br)c2)c(=O)[nH]c1=O [Compound 78]
EC50 [1]: 0.81 µM | EC50 [2]: 26.9 µM

N#Cc1nn(-c2cc(Cl)c(Sc3cc(Cc4ccccc4)c(=O)[nH]n3)c(Cl)c2)c(=O)[nH]c1=O [Compound 80]
EC50 [1]: 2.33 µM | EC50 [2]: 90 µM

CC(C)c1c[nH]c2ncc(Oc3c(Cl)cc(-n4nc(C#N)c(=O)[nH]c4=O)cc3Cl)cc12 [Compound 84]
EC50 [1]: 0.66 µM

Cc1cc(OCP(=O)(O)O)cc(C)c1Cc1cc(C(C)C)c(=O)[nH]n1 [Compound 85]
EC50 [1]: > 90 µM

CC(O)(CO)c1ccc(Cc2cc(Oc3c(Cl)cc(-n4nc(C#N)c(=O)[nH]c4=O)cc3Cl)n[nH]c2=O)cc1 (centres unmarked) [Compound 86]
EC50 [1]: > 90 µM

N#Cc1nn(-c2cc(Cl)c(Oc3ccc4[nH]cc(C(N)=O)c4c3)c(Cl)c2)c(=O)[nH]c1=O [Compound 87]
EC50 [1]: 1.21 µM

CC(C)c1n[nH]c2ccc(Oc3c(Cl)cc(-n4nc(C#N)c(=O)[nH]c4=O)cc3Cl)cc12 [Compound 90]
EC50 [1]: 0.18 µM | EC50 [3]: 2.76 µM

CC(C)c1nn(-c2c(Cl)cc(-n3nc(C#N)c(=O)[nH]c3=O)cc2Cl)c2ccc(O)cc12 [Compound 91]
EC50 [1]: 0.43 µM | EC50 [3]: 4.35 µM
